Reference: ChEMBL document CHEMBL1201862, “PubChem BioAssay data set” (2004)
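All cell lines were grown in 96-well plates and treated with compound for 48 hours. GI50 marks 50% less growth.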 Calls of active or inactive are those of the source. Rule as the data show it: active = GI50 up to about 1.1 µM and inactive = higher.

Key:
Experiment in all cases: DTP human tumour cell line panel, 48 h
HCT-116 = system: HCT-116
LOX IMVI = system: LOX IMVI
NCI-H23 = system: NCI-H23
COLO 205 = system: COLO 205
HCC 2998 = system: HCC 2998
M14 = system: M14
NCI-H226 = system: NCI-H226
KM12 = system: KM12
DMS-114 = system: DMS-114
DMS-273 = system: DMS-273
OVCAR-3 = system: OVCAR-3
SF-268 = system: SF-268
NCI-H522 = system: NCI-H522
IGROV-1 = system: IGROV-1
K562 = system: K562
SNB-78 = system: SNB-78
HOP-62 = system: HOP-62
SK-MEL-2 = system: SK-MEL-2
CAKI-1 = system: CAKI-1
SW-620 = system: SW-620
OVCAR-5 = system: OVCAR-5
UACC-62 = system: UACC-62
KM-20L2 = system: KM-20L2
SNB-75 = system: SNB-75
SK-MEL-28 = system: SK-MEL-28
U-251 = system: U-251
ACHN = system: ACHN
OVCAR-4 = system: OVCAR-4
UACC-257 = system: UACC-257
M19-MEL = system: M19-MEL
RPMI-8226 = system: RPMI-8226
SR = system: SR
HCT-15 = system: HCT-15
SNB-19 = system: SNB-19
LXFL 529 = system: LXFL 529
RXF 631 = system: RXF 631
SN12C = system: SN12C
SF-539 = system: SF-539
HOP-18 = system: HOP-18
UO-31 = system: UO-31
TK-10 = system: TK-10
SF-295 = system: SF-295
RXF 393 = system: RXF 393
Malme-3M = system: Malme-3M
A549 = system: A549
SK-MEL-5 = system: SK-MEL-5
DLD-1 = system: DLD-1
XF498 = system: XF498
OVCAR-8 = system: OVCAR-8
NCI-H460 = system: NCI-H460
MOLT-4 = system: MOLT-4
A498 = system: A498
786-0 = system: 786-0
HL-60 = system: HL-60
CCRF-CEM = system: CCRF-CEM
SK-OV-3 = system: SK-OV-3
HT-29 = system: HT-29
EKVX = system: EKVX
HOP-92 = system: HOP-92

In the case of `Cc1cc2cccc(Cl)c2nc1C(=O)c1ccccc1`, the GI50 (HCT-116) is reported as > 100 µM (inactive), the GI50 (LOX IMVI) is reported as 94.4 µM (inactive) and the GI50 (NCI-H23) is reported as > 100 µM (inactive). For the same compound, the GI50 (COLO 205) was > 100 µM (inactive), the GI50 (HCC 2998) was > 100 µM (inactive) and the GI50 (M14) was 76.2 µM (inactive). The GI50 (NCI-H226) was > 100 µM (inactive), the GI50 (KM12) was > 100 µM (inactive) and the GI50 (DMS-114) was > 100 µM (inactive). The GI50 (DMS-273) was > 100 µM (inactive), the GI50 (OVCAR-3) was > 100 µM (inactive) and the GI50 (SF-268) was > 100 µM (inactive). For the same compound, the GI50 (NCI-H522) was 41.2 µM (inactive), the GI50 (IGROV-1) was > 100 µM (inactive) and the GI50 (K562) was > 100 µM (inactive). The GI50 (SNB-78) was > 100 µM (inactive), the GI50 (HOP-62) was 44.1 µM (inactive) and the GI50 (SK-MEL-2) was > 100 µM (inactive). The GI50 (CAKI-1) was > 100 µM (inactive), the GI50 (SW-620) was > 100 µM (inactive) and the GI50 (OVCAR-5) was > 100 µM (inactive). For the same compound, the GI50 (UACC-62) was > 100 µM (inactive), the GI50 (KM-20L2) was > 100 µM (inactive) and the GI50 (SNB-75) was 17.1 µM (inactive). The GI50 (SK-MEL-28) was > 100 µM (inactive), the GI50 (U-251) was > 100 µM (inactive) and the GI50 (ACHN) was > 100 µM (inactive). For the same compound, the GI50 (OVCAR-4) was 86.3 µM (inactive), the GI50 (UACC-257) was 18.2 µM (inactive) and the GI50 (M19-MEL) was > 100 µM (inactive). For the same compound, the GI50 (RPMI-8226) was > 100 µM (inactive), the GI50 (SR) was > 100 µM (inactive) and the GI50 (HCT-15) was greater than 100 µM. The GI50 (SNB-19) was 70.3 µM (inactive), the GI50 (LXFL 529) was > 100 µM (inactive) and the GI50 (RXF 631) was 89.3 µM (inactive). The GI50 (SN12C) was > 100 µM (inactive), the GI50 (SF-539) was > 100 µM (inactive) and the GI50 (HOP-18) was 18.7 µM (inactive). The GI50 (UO-31) was > 100 µM (inactive), the GI50 (TK-10) was > 100 µM (inactive) and the GI50 (SF-295) was 18.9 µM (inactive). The GI50 (RXF 393) was 26.6 µM (inactive), the GI50 (Malme-3M) was 50.5 µM (inactive) and the GI50 (A549) was > 100 µM (inactive). The GI50 (SK-MEL-5) was > 100 µM (inactive), the GI50 (DLD-1) was > 100 µM (inactive) and the GI50 (XF498) was 82 µM (inactive). For the same compound, the GI50 (OVCAR-8) was 46.3 µM (inactive).
In the case of `COc1cc(/C=C(\OC(C)=O)c2ccc3c(c2)OCO3)cc(OC)c1OC`, the GI50 (NCI-H460) is reported as 33 µM (inactive), the GI50 (HCT-116) is reported as 18.2 µM (inactive) and the GI50 (LOX IMVI) is reported as 16.1 µM (inactive). The GI50 (NCI-H23) was 16.4 µM (inactive), the GI50 (COLO 205) was 19.9 µM (inactive) and the GI50 (HCC 2998) was > 10 µM (inactive). The GI50 (M14) was 16.3 µM (inactive), the GI50 (NCI-H226) was 11.5 µM (inactive) and the GI50 (MOLT-4) was 13.3 µM (inactive). For the same compound, the GI50 (KM12) was 19 µM (inactive), the GI50 (DMS-114) was 13.4 µM (inactive) and the GI50 (DMS-273) was 14.8 µM (inactive). For the same compound, the GI50 (OVCAR-3) was 18.3 µM (inactive), the GI50 (SF-268) was 20 µM (inactive) and the GI50 (NCI-H522) was 13.5 µM (inactive). For the same compound, the GI50 (IGROV-1) was 10.9 µM (inactive), the GI50 (K562) was 25.5 µM (inactive) and the GI50 (SNB-78) was 35.5 µM (inactive). For the same compound, the GI50 (A498) was 16.1 µM (inactive), the GI50 (HOP-62) was 20 µM (inactive) and the GI50 (SK-MEL-2) was 22.8 µM (inactive). The GI50 (786-0) was 29 µM (inactive), the GI50 (HL-60) was 27.4 µM (inactive) and the GI50 (CAKI-1) was 22.1 µM (inactive). The GI50 (SW-620) was 28.5 µM (inactive), the GI50 (CCRF-CEM) was 25.4 µM (inactive) and the GI50 (OVCAR-5) was 24.5 µM (inactive). The GI50 (UACC-62) was 16.6 µM (inactive), the GI50 (KM-20L2) was 31.1 µM (inactive) and the GI50 (SNB-75) was 20.6 µM (inactive). For the same compound, the GI50 (SK-OV-3) was 17.5 µM (inactive), the GI50 (HT-29) was 22.3 µM (inactive) and the GI50 (SK-MEL-28) was 17.7 µM (inactive). The GI50 (EKVX) was 15.9 µM (inactive), the GI50 (U-251) was 18.5 µM (inactive) and the GI50 (ACHN) was 17.9 µM (inactive). The GI50 (OVCAR-4) was 18.3 µM (inactive), the GI50 (UACC-257) was 18.4 µM (inactive) and the GI50 (M19-MEL) was 14.9 µM (inactive). The GI50 (RPMI-8226) was 20.8 µM (inactive), the GI50 (SR) was 8.2 µM (inactive) and the GI50 (HCT-15) was 16 µM. For the same compound, the GI50 (SNB-19) was 28.2 µM (inactive), the GI50 (LXFL 529) was 14.4 µM (inactive) and the GI50 (RXF 631) was > 10 µM (inactive). For the same compound, the GI50 (SN12C) was 20.2 µM (inactive), the GI50 (SF-539) was 18 µM (inactive) and the GI50 (HOP-18) was 20.9 µM (inactive). The GI50 (UO-31) was 4.15 µM (inactive), the GI50 (TK-10) was 26.6 µM (inactive) and the GI50 (SF-295) was 23.8 µM (inactive). For the same compound, the GI50 (RXF 393) was 24.8 µM (inactive), the GI50 (Malme-3M) was 23 µM (inactive) and the GI50 (HOP-92) was 15.6 µM (inactive). For the same compound, the GI50 (A549) was 26.7 µM (inactive), the GI50 (SK-MEL-5) was 11.8 µM (inactive) and the GI50 (DLD-1) was 18.6 µM (inactive). For the same compound, the GI50 (XF498) was 14 µM (inactive) and the GI50 (OVCAR-8) was 16.3 µM (inactive).
